Data published in PubChem BioAssay (NCI).
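1) Cells in 96-well plates. 2) Compound, 48 h, 5 concentrations. 3) Linear interpolation between surrounding doses. 4) Unreached endpoint = highest concentration. TGI is the concentration that stops growth completely.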

Tests used:
Assay in all cases: NCI-60 cell line screen, 48 h
[1] = system: TK-10 renal
[2] = system: OVCAR-5 ovarian
[3] = system: MALME-3M melanoma
[4] = system: NCI/ADR-RES ovarian
[5] = system: KM12 colon
[6] = system: SF-268 CNS
[7] = system: NCI-H460 lung
[8] = system: SF-295 CNS
[9] = system: T-47D breast
[10] = system: A498 renal
[11] = system: HL-60(TB) leukemia
[12] = system: K-562 leukemia
[13] = system: SW-620 colon
[14] = system: HOP-92 NSCLC
[15] = system: UACC-62 melanoma
[16] = system: MOLT-4 leukemia
[17] = system: MCF7 breast
[18] = system: HT29 colon
[19] = system: RPMI-8226 leukemia
[20] = system: RXF 393 renal
[21] = system: CAKI-1 renal
[22] = system: SF-539 CNS
[23] = system: HCC-2998 colon
[24] = system: COLO 205 colon
[25] = system: SR leukemia
[26] = system: 786-0 renal
[27] = system: HCT-116 colon
[28] = system: SK-OV-3 ovarian
[29] = system: NCI-H23 lung
[30] = system: HOP-62 NSCLC
[31] = system: CCRF-CEM leukemia
[32] = system: SNB-19 CNS
[33] = system: HS 578T breast
[34] = system: ACHN renal
[35] = system: SK-MEL-2 melanoma
[36] = system: EKVX NSCLC
[37] = system: MDA-N
[38] = system: OVCAR-3 ovarian
[39] = system: DU-145 prostate
[40] = system: UO-31 renal
[41] = system: HCT-15 colon
[42] = system: OVCAR-8 ovarian
[43] = system: M14 melanoma
[44] = system: BT-549 breast
[45] = system: UACC-257 melanoma
[46] = system: MDA-MB-435
[47] = system: NCI-H226 lung
[48] = system: MDA-MB-231 breast
[49] = system: SK-MEL-28 melanoma
[50] = system: OVCAR-4 ovarian
[51] = system: U251 CNS
[52] = system: LOX IMVI melanoma
[53] = system: NCI-H522 lung
[54] = system: A549 NSCLC
[55] = system: SK-MEL-5 melanoma
[56] = system: SN12C renal
[57] = system: PC-3 prostate
[58] = system: IGROV1 ovarian
[59] = system: SNB-75 CNS

Measured: TGI

O=C1/C(=C\c2cccc(Oc3ccccc3)c2)SC(c2ccccc2)N1c1ccccc1 (stereo not drawn)
50.3 µM: [19]
93.6 µM: [22]
37.2 µM: [25]
97.9 µM: [37]
> 100 µM: [1] | [2] | [3] | [4] | [5] | [6] | [7] | [8] | [9] | [10] | [11] | [12] | [13] | [14] | [15] | [16] | [17] | [18] | [20] | [21] | [23] | [24] | [26] | [27] | [28] | [29] | [30] | [32] | [33] | [34] | [35] | [36] | [38] | [39] | [40] | [41] | [42] | [43] | [44] | [45] | [46] | [47] | [48] | [49] | [50] | [51] | [52] | [53] | [54] | [55] | [56]
86.4 µM: [31]

O=C1CC(c2ccccc2)C2(C(=O)NC(=S)NC2=O)C(c2ccccc2)C1 (stereo not drawn)
> 75 µM: [1] | [2] | [3] | [4] | [5] | [6] | [7] | [8] | [9] | [11] | [12] | [13] | [14] | [15] | [16] | [17] | [18] | [20] | [21] | [22] | [57] | [23] | [24] | [25] | [26] | [27] | [29] | [58] | [30] | [31] | [32] | [34] | [35] | [36] | [37] | [38] | [39] | [40] | [41] | [42] | [43] | [44] | [45] | [46] | [47] | [48] | [49] | [50] | [51] | [52] | [59] | [53] | [55] | [56]
73.3 µM: [19]

Cc1c2c3ccccc3nc-2n(C)c2ccccc12
9.19 µM: [54]
5.69 µM: [38]
11.6 µM: [18]
10.8 µM: [22]
14.5 µM: [37]
6.25 µM: [40]
12.2 µM: [58]
13 µM: [26]
6.78 µM: [4]
29.6 µM: [39]
2.01 µM: [16]
25.2 µM: [25]
52.7 µM: [19]
7.91 µM: [5]
12.9 µM: [13]
41.3 µM: [9]
6.97 µM: [56]
2.2 µM: [55]
6.01 µM: [20]
20 µM: [33]
8.27 µM: [2]
7.22 µM: [28]
7.75 µM: [59]
13.9 µM: [29]
3.67 µM: [15]
8.52 µM: [47]
12.4 µM: [46]
> 100 µM: [27]
9.09 µM: [1]
6.23 µM: [34]
44.5 µM: [32]
11.3 µM: [41]
5.28 µM: [12]
2.85 µM: [7]
15.1 µM: [42]
31.9 µM: [30]
7.5 µM: [57]
20.5 µM: [43]
12.5 µM: [49]
13.1 µM: [14]
12.7 µM: [51]
10.3 µM: [36]
8.05 µM: [45]
19.1 µM: [6]
5.33 µM: [31]
5.98 µM: [3] | [17]
19.3 µM: [44]
11.4 µM: [23]
24.6 µM: [8]

c1cc2c(cc1NC1=NCCO1)OCO2
> 100 µM: [1] | [2] | [3] | [4] | [5] | [6] | [7] | [8] | [9] | [10] | [11] | [12] | [13] | [14] | [15] | [16] | [17] | [18] | [19] | [20] | [21] | [22] | [57] | [23] | [24] | [25] | [26] | [27] | [28] | [29] | [58] | [30] | [32] | [33] | [34] | [35] | [36] | [37] | [38] | [39] | [40] | [41] | [42] | [43] | [46] | [47] | [48] | [49] | [50] | [51] | [52] | [59] | [53] | [54] | [55] | [56]
> 21.1 µM: [31]
